Test results reported in ChEMBL document CHEMBL1158808, “Eunicellin-based diterpenoids, australins A-D, isolated from the soft coral Cladiella australis” (2005).
In brackets after ≈: the same amount, converted by molar mass.

Experiments:
Type in all cases: functional
MDA-MB-231 = assay: Cytotoxicity against human MDA-MB-231 cells after 6 days by MTT assay; details: MDA-MB-231, 144 h, read-out: ED50 (the source's name)
MCF7 = assay: Cytotoxicity against human MCF7 cells after 6 days by MTT assay; details: MCF7, 144 h, read-out: ED50 (the source's name)
HepG2 = assay: Cytotoxicity against human HepG2 cells after 6 days by MTT assay in presence of DMEM12; details: HepG2, 144 h, read-out: ED50 (the source's name)

SMILES | EC50 (MDA-MB-231) | EC50 (MCF7) | EC50 (HepG2)
C=C1CC[C@H]([C@@H](C)CO)[C@@H]2[C@H]1C(=O)C[C@@](C)(O)[C@H]1CC[C@@](C)(OC(=O)CCC)[C@@H]2O1 [AUSTARLIN D] | 24.4 µg/mL (≈ 57.7 µM) | – | –
C=C1C[C@@]2(O)O[C@H]([C@@H]3[C@@H](C(C)C)CC[C@@](C)(OC(=O)CCC)[C@@H]32)[C@](C)(O)CC[C@@H]1OC(C)=O [AUSTARLIN B] | 6.4 µg/mL (≈ 13.7 µM) | 8.6 µg/mL (≈ 18.4 µM) | 2.4 µg/mL
